According to patent publication US20030229087A1 (priority 2002, published 2003):

What was measured:
Type in all cases: in vivo
Leptosphaeria nodorum = Leptosphaeria nodorum test (wheat)/protective; settings: protective, application rate 25 g/ha, evaluation 10 days after inoculation
Method: Leptosphaeria nodorum Test (Wheat)/Protective
To produce a suitable preparation of active compound, 1 part by weight of active compound or active compound combination is mixed with the stated amounts of solvents and emulsifier, and the concentrate is diluted with water to the desired concentration.
(§1) To test for protective activity, young plants are sprayed with the preparation of active compound at the stated application rate. After the spray coating has dried on, the plants are sprayed with a spore suspension of Leptosphaeria nodorum. The plants remain in an incubation cabin at 20° C. and 100% relative atmospheric humidity for 48 hours.
The plants are placed in a greenhouse at a temperature of approximately 15° C. and a relative atmospheric humidity of 80%.
Evaluation is carried out 10 days after the inoculation. 0% means an efficacy which corresponds to that of the control, whereas an efficacy of 100% means that no infection is observed.

Pyrenophora teres = Pyrenophora teres test (barley)/protective; settings: protective, application rate 25 g/ha, evaluation 7 days after inoculation
Method: Pyrenophora teres Test (Barley)/Protective
(§2) To produce a suitable preparation of active compound, 1 part by weight of active compound or active compound combination is mixed with the stated amounts of solvent and emulsifier, and the concentrate is diluted with water to the desired concentration.
as §1, with “conidia” for “spore”, “Pyrenophora teres.” for “Leptosphaeria nodorum.”
The plants are then placed in a greenhouse at a temperature of approximately 20° C. and a relative atmospheric humidity of approximately 80%.
(§3) Evaluation is carried out 7 days after the inoculation. 0% means an efficacy which corresponds to that of the control, whereas an efficacy of 100% means that no infection is observed.

Sphaerotheca fuliginea = test: whole plant or invertebrate; settings: Podosphaera fuliginea, in Cucumis sativus, 240 h, read-out: % Efficacy
[1] = test system: Erysiphe graminis f.sp. tritici; test: Erysiphe test (wheat)/protective; settings: protective, application rate 6.25 g/ha, evaluation 7 days after inoculation
Method: Erysiphe Test (Wheat)/Protective
as §2
(§4) To test for protective activity, young plants are sprayed with the preparation of active compound at the stated application rate.
After the spray coating has dried on, the plants are dusted with spores of Erysiphe graminis f.sp. tritici.
(§5) The plants are placed in a greenhouse at a temperature of approximately 20° C. and a relative atmospheric humidity of approximately 80% to promote the development of mildew postules.
as §3

[2] = test system: Erysiphe graminis f.sp. hordei; test: Erysiphe test (barley)/protective; settings: Blumeria graminis, 168 h, protective, application rate 12.5 g/ha, evaluation 7 days after inoculation, read-out: Efficacy in %
Method: Erysiphe Test (Barley)/Protective
as §2, §4
After the spray coating has dried on, the plants are dusted with spores of Erysiphe graminis f.sp. hordei.
as §5, §3

Phytophthora infestans = test: whole plant or invertebrate; settings: Phytophthora infestans, in Solanum lycopersicum, 72 h, read-out: % Efficacy

In the case of CC(C)(C)C(O)(CCc1ccc(Cl)cc1)Cn1cncn1 (centres unmarked) [tebuconazole (IV) (3), tebuconazole], the Efficacy in % (Leptosphaeria nodorum) is reported as 50%, the Efficacy in % (Pyrenophora teres) is reported as 0% and the pest or weed control at 2.5 g/ha (Sphaerotheca fuliginea) is reported as 0%.
For Fc1ccc(C2(Cn3cncn3)OC2c2ccccc2Cl)cc1 (centres unmarked) [epoxiconazole (XI) (10), epoxiconazole], the Efficacy in % [1] was 70% and the Efficacy in % (Pyrenophora teres) was 60%.
For N#Cc1c[nH]cc1-c1cccc2c1OC(F)(F)O2 [fludioxonil (XXX) (29), fludioxonil], the pest or weed control at 12.5 g/ha [2] was 0% and the pest or weed control at 2.5 g/ha (Sphaerotheca fuliginea) was 0%.
O=[N+]([O-])/N=C1\NCCN1Cc1ccc(Cl)nc1 [imidacloprid (XXIV) (23), 1-[(6-chloro-3-pyridinyl)-methyl]-N-nitro-2-imidazolidinimine] gave a pest or weed control at 12.5 g/ha [2] of 0%.
CO/N=C(/C1=NOCCO1)c1ccccc1Oc1ncnc(Oc2ccccc2Cl)c1F [Compound of the formula (LXXII) (71)] gave a pest or weed control at 12.5 g/ha [2] of 0%, an Efficacy in % (Leptosphaeria nodorum) of 40% and a pest or weed control at 2 g/ha (Sphaerotheca fuliginea) of 43%.
With CO/N=C(/C(=O)OC)c1ccccc1COc1ccccc1C [kresoxim-methyl (XVI) (15), kresoxim-methyl] the pest or weed control at 1 g/ha (Phytophthora infestans) was 35% and the pest or weed control at 2 g/ha (Sphaerotheca fuliginea) was 0%.
For OC(Cc1ccccc1Cl)(Cn1nc[nH]c1=S)C1(Cl)CC1 (centres unmarked) [Compound of the formula (LXX) (69), 2-(1-chloro-cyclopropyl)-1-(2-chlorophenyl)-3-(5-mercapto-1,2,4-triazol-1-yl)-propan-2-ol], the pest or weed control at 12.5 g/ha [2] was 90%, the Efficacy in % (Pyrenophora teres) was 70% and the pest or weed control at 5 g/ha (Phytophthora infestans) was 0%.
With Cc1noc(C)c1S(=O)(=O)n1c(Cl)nc2cc3c(cc21)OC(F)(F)O3 [Compound of the formula (LXXI) (70), 1-(3,5-dimethylisoxazole-4-sulphonyl)-2-chloro-6,6-difluoro-[1,3]-dioxolo-[4,5f]benzimidazole] the pest or weed control at 12.5 g/ha [2] was 0%, the Efficacy in % (Leptosphaeria nodorum) was 0% and the pest or weed control at 1 g/ha (Sphaerotheca fuliginea) was 0%.
With CNC(=O)/C(=N/OC)c1ccccc1Oc1ncnc(Oc2cccc(Cl)c2C)c1F [Compound of the formula (I), (2E/Z)-2-(2-{[6-(3-chloro-2-methylphenoxy)-5-fluoro-4-pyrimidinyl]oxy}phenyl)-2-(methoxyimino)-N-methylethanamide] the pest or weed control at 12.5 g/ha [2] was 80%, the Efficacy in % [1] was 0% and the Efficacy in % (Leptosphaeria nodorum) was 60%. The Efficacy in % (Pyrenophora teres) was 60%, the pest or weed control at 0.5 g/ha (Phytophthora infestans) was 32% and the pest or weed control at 1 g/ha (Phytophthora infestans) was 60%. It also gave a pest or weed control at 2 g/ha (Phytophthora infestans) of 72%, a pest or weed control at 0.5 g/ha (Sphaerotheca fuliginea) of 30% and a pest or weed control at 1 g/ha (Sphaerotheca fuliginea) of 69%.
With CC1COC(Cn2cncn2)(c2ccc(Oc3ccc(Cl)cc3)cc2Cl)O1 (centres unmarked) [difenoconazole] the pest or weed control at 5 g/ha (Phytophthora infestans) was 5% and the pest or weed control at 5 g/ha (Sphaerotheca fuliginea) was 14%.
Cc1cc(C2CC2)nc(Nc2ccccc2)n1 [cyprodinil (XVIII) (17), cyprodinil] showed a pest or weed control at 12.5 g/ha [2] of 0%, an Efficacy in % (Pyrenophora teres) of 0% and a pest or weed control at 10 g/ha (Sphaerotheca fuliginea) of 22%.
For CSC1=N[C@@](C)(c2ccccc2)C(=O)N1Nc1ccccc1 [fenamidone], the pest or weed control at 0.5 g/ha (Phytophthora infestans) was 48% and the pest or weed control at 0.5 g/ha (Sphaerotheca fuliginea) was 0%.
With Cc1cc(C)nc(Nc2ccccc2)n1 [pyrimethanil (XLIX)(48), pyrimethanil] the pest or weed control at 10 g/ha (Phytophthora infestans) was 11% and the pest or weed control at 5 g/ha (Sphaerotheca fuliginea) was 11%.
O=C(Nc1ccccc1)N(Cc1ccc(Cl)cc1)C1CCCC1 [pencycuron (XXXVIII) (37), pencycuron] gave a pest or weed control at 12.5 g/ha [2] of 50%, a pest or weed control at 10 g/ha (Phytophthora infestans) of 14% and a pest or weed control at 5 g/ha (Sphaerotheca fuliginea) of 30%.
With CCC(C)(NC(=O)c1cc(Cl)c(C)c(Cl)c1)C(=O)CCl (centres unmarked) [zoxamide (LXXIII)(72), zoxamide] the pest or weed control at 1 g/ha (Phytophthora infestans) was 19% and the pest or weed control at 1 g/ha (Sphaerotheca fuliginea) was 0%.
CCNC(=O)NC(=O)C(C#N)=NOC [cymoxanil (XLVI) (45), cymoxanil] gave a pest or weed control at 2.5 g/ha (Phytophthora infestans) of 0% and a pest or weed control at 5 g/ha (Sphaerotheca fuliginea) of 15%.
In the case of CC1(C)CCC(Cc2ccc(Cl)cc2)C1(O)Cn1cncn1 (centres unmarked) [metconazole (XII) (11), metconazole], the Efficacy in % [1] is reported as 50%.
With COc1ccc(C(=CC(=O)N2CCOCC2)c2ccc(Cl)cc2)cc1OC [dimetomorph (XLV) (44), dimetomorph] the pest or weed control at 1 g/ha (Phytophthora infestans) was 23% and the pest or weed control at 1 g/ha (Sphaerotheca fuliginea) was 0%.
Cc1ccc(-c2c(Cl)nc(C#N)n2S(=O)(=O)N(C)C)cc1 [cyamidazosulfamid (LXX IV)(73), cyamidazosulfamid] was tested, and the pest or weed control at 0.5 g/ha (Phytophthora infestans) was 45% and the pest or weed control at 1 g/ha (Sphaerotheca fuliginea) was 0%.
CC(C)(C)C(O)C(Oc1ccc(Cl)cc1)n1cncn1 (centres unmarked) [triadimenol (X) (9), 1-(4-chloro-phenoxy)-3,3-dimethyl-1-(1,2,4-triazol-1-yl)-butan-2-ol] showed an Efficacy in % (Pyrenophora teres) of 30%, a pest or weed control at 5 g/ha (Phytophthora infestans) of 0% and a pest or weed control at 2.5 g/ha (Sphaerotheca fuliginea) of 0%.
In the case of S1SSSSSSS1 [sulphur (LXII) (62), sulphur], the pest or weed control at 25 g/ha (Phytophthora infestans) is reported as 0% and the pest or weed control at 25 g/ha (Sphaerotheca fuliginea) is reported as 0%.
For CC#Cc1cc(C)nc(Nc2ccccc2)n1 [mepanipyrim (L) (49), mepanipyrim], the pest or weed control at 5 g/ha (Phytophthora infestans) was 0% and the pest or weed control at 10 g/ha (Sphaerotheca fuliginea) was 11%.
